Experimental data reported in patent US20230339981A1, “KRAS G12D MODULATING COMPOUNDS” (priority 2022, published 2023).

Columns and labels:
[1] = molecular target: GDP-loaded KRAS G12D (Homo sapiens (Human), UniProt P01116, G12D); assay: KRAS G12D (GDP) biochemical assay (TR-FRET probe displacement); type: binding; settings: 2 hours
Method in brief: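 TR-FRET probe displacement: 1:3 DMSO serial dilutions pre-incubated 30 min with GDP-bound KRAS G12D, followed by Eu-streptavidin/probe for 2 h at room temperature (Hepes pH 7.4, NaCl, MgCl2, Tween-20 buffer). IC50 defined as concentration halving TR-FRET ratio, from sigmoidal dose-response fit.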

[2] = system: GP2D (KRAS G12D) cells; assay: 2D cell viability assay (CellTiter-Glo); type: cell-based; settings: GP2d, 96 h, 4 days
Method in brief: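 Viability was read by CellTiter-Glo after 4 days at 37 °C of 2D culture of KRAS G12D GP2D cells (1000/well, RPMI, 10% FBS) on pre-spotted threefold compound dilutions. EC50 was fitted with a sigmoidal dose-response model as the point of half-maximal luminescence loss.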

GDP-loaded KRAS G12D, sequence (P01116-2 other isoform, or with tags, fused parts or gaps G12D): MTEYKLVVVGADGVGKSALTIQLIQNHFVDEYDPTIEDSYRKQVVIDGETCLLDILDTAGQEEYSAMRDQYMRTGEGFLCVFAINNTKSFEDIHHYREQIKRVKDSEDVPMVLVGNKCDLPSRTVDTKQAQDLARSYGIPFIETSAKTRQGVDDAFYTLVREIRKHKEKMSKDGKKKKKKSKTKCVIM

| Structure (SMILES) | IC50 [1] [nM] | EC50 [2] [nM] |
| --- | --- | --- |
| C#Cc1c(F)ccc2cc(O)cc(-c3nc4c5c(nc(OC[C@@]67CCCN6C[C@H](F)C7)nc5c3F)N3C[C@H]5CC[C@H](N5)[C@@H]3CCO4)c12 [Example 77, 5-ethynyl-6-fluoro-4-((6aS,7S,10R)-1-fluoro-13-(((2R,7aS)-2-fluorotetrahydro-1H-pyrrolizin-7a(5H)-yl)methoxy)-5,6,6a,7,8,9,10,11-octahydro-4-oxa-3,11a,12,14,15-pentaaza-7,10-methanocyclohepta[4,5]cycloocta[1,2,3-de]naphthalen-2-yl)naphthalen-2-ol] | 6 | 83 |
| C#Cc1c(F)ccc2cc(O)cc(-c3nc4c5c(nc(OCC67CCCN6C[C@H](OC(F)(F)F)C7)nc5c3F)N3C[C@H]5CC[C@H](N5)[C@H]3CC4)c12 (stereo partly drawn) [Example 138, 5-ethynyl-6-fluoro-4-((5aR,6S,9R)-1-fluoro-12-((cis-2-(trifluoromethoxy)tetrahydro-1H-pyrrolizin-7a(5H)-yl)methoxy)-4,5,5a,6,7,8,9,10-octahydro-3,10a,11,13,14-pentaaza-6,9-methanonaphtho[1,8-ab]heptalen-2-yl)naphthalen-2-ol] | 0.3 | 17.2 |
| C#Cc1c(F)ccc2cc(O)cc(-c3nc4c5c(nc(OC[C@@]67CCCN6C[C@H](F)C7)nc5c3F)N3C[C@H]5CC[C@H](N5)[C@@H]3[C@H](C)C4)c12 [Example 79, 5-ethynyl-6-fluoro-4-((5R,5aS,6S,9R)-1-fluoro-12-(((2R,7aS)-2-fluorotetrahydro-1H-pyrrolizin-7a(5H)-yl)methoxy)-5-methyl-4,5,5a,6,7,8,9,10-octahydro-3,10a,11,13,14-pentaaza-6,9-methanonaphtho[1,8-ab]heptalen-2-yl)naphthalen-2-ol] | 7 | 15.3 |
| C#Cc1c(F)ccc2cc(O)cc(-c3c(Cl)c4c5c(nc(OC[C@@]67CCCN6C[C@H](F)C7)nc5c3F)N3C[C@H]5CC[C@H](N5)[C@H]3CC4)c12 [Example 204, 4-((1S,4R,14aR)-12-chloro-10-fluoro-8-(((2R,7aS)-2-fluorotetrahydro-1H-pyrrolizin-7a(5H)-yl)methoxy)-1,2,3,4,5,13,14,14a-octahydro-1,4-epiminoazepino[1′,2′:1,7]azepino[2,3,4-de]quinazolin-11-yl)-5-ethynyl-6-fluoronaphthalen-2-ol] | 0.1 | 1.3 |
| Oc1cc(-c2nc3c4c(nc(OC[C@@]56CCCN5C[C@H](F)C6)nc4c2F)N2CC4CCC(N4)[C@H]2CO3)c2ccccc2c1 (stereo in doubt) [Example 18, 4-((5aS,6S,9R)-1-fluoro-12-(((2R,7aS)-2-fluorotetrahydro-1H-pyrrolizin-7a(5H)-yl)methoxy)-5a,6,7,8,9,10-hexahydro-5H-4-oxa-3,10a,11,13,14-pentaaza-6,9-methanonaphtho[1,8-ab]heptalen-2-yl)naphthalen-2-ol] | > 1000 | > 10000 |
| C=C(Cl)c1c(C)ccc2cc(O)cc(-c3nc4c5c(nc(OC[C@@]67CCCN6C[C@H](F)C7)nc5c3F)N3CC5CCC(N5)[C@H]3CO4)c12 (stereo in doubt) [Example 74, 5-(1-chlorovinyl)-4-((5aS,6R,9S)-1-fluoro-12-(((2R,7aS)-2-fluorotetrahydro-1H-pyrrolizin-7a(5H)-yl)methoxy)-5a,6,7,8,9,10-hexahydro-5H-4-oxa-3,10a,11,13,14-pentaaza-6,9-methanonaphtho[1,8-ab]heptalen-2-yl)-6-methylnaphthalen-2-ol] | 16 | 310 |
| C#Cc1c(F)ccc2cccc(-c3nc4c5c(nc(OC[C@@]67CCCN6C[C@@]6(CC6(F)F)C7)nc5c3F)N3C[C@H]5CC[C@H](N5)[C@@H]3[C@@H](C)C4)c12 [Example 85, (5S,5aS,6S,9R)-12-(((1S,7a'S)-2,2-difluorodihydro-1′H,3′H-spiro[cyclopropane-1,2′-pyrrolizin]-7a′(5′H)-yl)methoxy)-2-(8-ethynyl-7-fluoronaphthalen-1-yl)-1-fluoro-5-methyl-4,5,5a,6,7,8,9,10-octahydro-3,10a,11,13,14-pentaaza-6,9-methanonaphtho[1,8-ab]heptalene] | 6.8 | 58 |
| C#Cc1c(F)ccc2cc(O)cc(-c3nc4c5c(nc(OC[C@@]67CCCN6[C@H](COC(C(F)(F)F)(C(F)(F)F)C(F)(F)F)CC7)nc5c3F)N3C[C@H]5CC[C@H](N5)[C@H]3CO4)c12 [Example 55, 5-ethynyl-6-fluoro-4-((5aS,6S,9R)-1-fluoro-12-(((3S,7aS)-3-(((1,1,1,3,3,3-hexafluoro-2-(trifluoromethyl)propan-2-yl)oxy)methyl)tetrahydro-1H-pyrrolizin-7a(5H)-yl)methoxy)-5a,6,7,8,9,10-hexahydro-5H-4-oxa-3,10a,11,13,14-pentaaza-6,9-methanonaphtho[1,8-ab]heptalen-2-yl)naphthalen-2-ol] | 0.5 | 0.8 |
| C#Cc1c(F)ccc2cccc(-c3nc4c5c(nc(OC[C@@]67CCCN6[C@H](COc6cc(C(F)(F)F)ncn6)CC7)nc5c3F)N3C[C@H]5CC[C@H](N5)[C@H]3CCC4)c12 [Example 154, (6aR,7S,10R)-2-(8-ethynyl-7-fluoronanhthalen-1-yl)-1-fluoro-13-(((3S,7aS)-3-(((6-(trifluoromethyl)pyrimidin-4-yl)oxy)methyl)tetrahydro-1H-pyrrolizin-7a(5H)-yl)methoxy)-5,6,6a,7,8,9,10,11-octahydro-4H-3,11a,12,14,15-pentaaza-7,10-methanocyclohepta[4,5]cycloocta[1,2,3-de]naphthalene] | 0.1 | 1 |
| C#Cc1c(F)ccc2cccc(-c3nc4c5c(nc(OC[C@@]67CCCN6[C@H](COC(C(F)(F)F)(C(F)(F)F)C(F)(F)F)CC7)nc5c3F)N3C[C@H]5CC[C@H](N5)[C@@H]3[C@@H](C)C4)c12 [Example 83, (5S,5aS,6S,9R)-2-(8-ethynyl-7-fluoronaphthalen-1-yl)-1-fluoro-12-(((3S,7aS)-3-(((1,1,1,3,3,3-hexafluoro-2-(trifluoromethyl)propan-2-yl)oxy)methyl)tetrahydro-1H-pyrrolizin-7a(5H)-yl)methoxy)-5-methyl-4,5,5a,6,7,8,9,10-octahydro-3,10a,11,13,14-pentaaza-6,9-methanonaphtho[1,8-ab]heptalene] | 3.2 | 67.4 |
| C#Cc1c(F)ccc2cccc(-c3nc4c5c(nc(OC[C@@]67CCCN6C[C@H](F)C7)nc5c3F)N3C[C@H]5CC[C@H](N5)[C@@H]3[C@@H](CC)C4)c12 [Example 91, (5S,5aS,6S,9R)-5-ethyl-2-(8-ethynyl-7-fluoronaphthalen-1-yl)-1-fluoro-12-(((2R,7aS)-2-fluorotetrahydro-1H-pyrrolizin-7a(5H)-yl)methoxy)-4,5,5a,6,7,8,9,10-octahydro-3,10a,11,13,14-pentaaza-6,9-methanonaphtho[1,8-ab]heptalene] | 100 | 1000 |
| C#Cc1c(F)ccc2cccc(-c3nc4c5c(nc(OC[C@@]67CCCN6[C@H](COc6ccnc(C(F)F)n6)CC7)nc5c3F)N3C[C@H]5CC[C@H](N5)[C@H]3CCC4)c12 [Example 208, (6aR,7S,10R)-13-(((3S,7aS)-3-(((2-(difluoromethyl)pyrimidin-4-yl)oxy)methyl)tetrahydro-1H-pyrrolizin-7a(5H)-yl)methoxy)-2-(8-ethynyl-7-fluoronaphthalen-1-yl)-1-fluoro-5,6,6a,7,8,9,10,11-octahydro-4H-3,11a,12,14,15-pentaaza-7,10-methanocyclohepta[4,5]cycloocta[1,2,3-de]naphthalene] | 0.09 | 3.3 |
| C#Cc1c(F)ccc2cccc(-c3nc4c5c(nc(OC[C@@]67CCCN6[C@H](CF)CC7)nc5c3F)N3C[C@H]5CC[C@H](N5)[C@H]3CC[C@H]4C)c12 [Example 195, (4R,6aR,7S,10R)-2-(8-ethynyl-7-fluoronaphthalen-1-yl)-1-fluoro-13-(((3S,7aS)-3-(fluoromethyl)tetrahydro-1H-pyrrolizin-7a(5H)-yl)methoxy)-4-methyl-5,6,6a,7,8,9,10,11-octahydro-4H-3,11a,12,14,15-pentaaza-7,10-methanocyclohepta[4,5]cycloocta[1,2,3-de]naphthalene] | 0.07 | 1.5 |
| C#Cc1c(F)ccc2cccc(-c3nc4c5c(nc(OC[C@@]67CCCN6[C@H](COc6cccc(S(F)(F)(F)(F)F)c6)CC7)nc5c3F)N3C[C@H]5CC[C@H](N5)[C@H]3CCC4)c12 [Example 118, (6aR,7S,10R)-2-(8-ethynyl-7-fluoronaphthalen-1-yl)-1-fluoro-13-(((3S,7aS)-3-((3-(pentafluoro-λ^6-sulfaneyl)phenoxy)methyl)tetrahydro-1H-pyrrolizin-7a(5H)-yl)methoxy)-5,6,6a,7,8,9,10,11-octahydro-4H-3,11a,12,14,15-pentaaza-7,10-methanocyclohepta[4,5]cycloocta[1,2,3-de]naphthalene] | 0.4 | 72.7 |
| C#Cc1c(F)ccc2cc(O)cc(-c3nc4c5c(nc(OC[C@@]67CCCN6[C@H](COc6cc(C(F)(F)F)ncn6)CC7)nc5c3F)N3C[C@H]5CC[C@H](N5)[C@H]3CC4)c12 [Example 149, 5-ethynyl-6-fluoro-4-((5aR,6S,9R)-1-fluoro-12-(((3S,7aS)-3-(((6-(trifluoromethyl)pyrimidin-4-yl)oxy)methyl)tetrahydro-1H-pyrrolizin-7a(5H)-yl)methoxy)-4,5,5a,6,7,8,9,10-octahydro-3,10a,11,13,14-pentaaza-6,9-methanonaphtho[1,8-ab]heptalen-2-yl)naphthalen-2-ol] | < 0.1 | 0.3 |
